Some test systems named below: KM20L2 colon; RPMI-8226 leukemia; T-47D breast; NCI-H226 lung; MOLT-4 leukemia; SW-620 colon; OVCAR-4 ovarian; DMS 114 small cell lung; MALME-3M melanoma; TK-10 renal.
Test in all cases: NCI-60 cell line screen, 48 h

Values joined by “and” are separate entries in the source; they are usually repeats but may differ in a detail not shown here. Equal values may be shown once.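 Interpolation was linear, between the two tested concentrations surrounding the appropriate level; five concentrations were tested over 48 hours in 96-well plates. Here, GI50 denotes the concentration required for 50% inhibition of growth. The concentration for full growth arrest is given as TGI.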 A value given as a limit tells only on which side of the number the result lay.

`COC1/C=C/O[C@@]2(C)Oc3c(C)c(O)c4c(O)c(cc(O)c4c3C2=O)NC(=O)/C(C)=C\C=C\[C@H](C)C(O)[C@@H](C)[C@@H](O)[C@@H](C)[C@H](OC(C)=O)[C@@H]1C` (stereo partly specified): the TGI in the assay with KM20L2 colon was 30.5 µM; with RPMI-8226 leukemia, 17.2 µM and 47.4 µM; in the assay with T-47D breast, 23.2 µM and 48.5 µM; with NCI-H226 lung, 179 µM; in the assay on MOLT-4 leukemia, 36.3 µM and 62.5 µM; in the assay on SW-620 colon, 13.6 µM and 21.9 µM. Further, the TGI in the assay on OVCAR-4 ovarian is 30.6 µM and 28.3 µM; with DMS 114 small cell lung, 20.6 µM; with MALME-3M melanoma, 25.9 µM and 77.9 µM; in the assay on TK-10 renal it was 32.1 µM and 39.1 µM. The GI50 was 2.14 µM and 7.37 µM in the assay on RPMI-8226 leukemia; 8.63 µM with T-47D breast; 39.6 µM and 59.3 µM in the assay with NCI-H226 lung; 7.42 µM in the assay with MOLT-4 leukemia; 2.72 µM and 7.91 µM with SW-620 colon; 16 µM in the assay on OVCAR-4 ovarian. For the same compound, the GI50 in the assay with MALME-3M melanoma is 12.8 µM.
For the compound `COc1ccc(CNc2cc(OC)cc(OC)c2)cc1`, in the assay with KM20L2 colon, the GI50 is > 100 µM and 49 µM. Moreover, the TGI in the assay with KM20L2 colon, in the assay with RPMI-8226 leukemia, in the assay with NCI-H226 lung, in the assay on MOLT-4 leukemia, in the assay with SW-620 colon and with OVCAR-4 ovarian was > 100 µM each time. For the same compound, the TGI in the assay on DMS 114 small cell lung, in the assay on MALME-3M melanoma and with TK-10 renal was > 100 µM in each case.
`CC(=O)O[C@]1(C(C)=O)CC[C@H]2[C@@H]3C[C@H](C)C4=CC(=O)C=C[C@]4(C)[C@@]3(F)[C@@H](O)C[C@@]21C`: the TGI in the assay on KM20L2 colon is > 100 µM; with RPMI-8226 leukemia it was > 100 µM; in the assay on NCI-H226 lung, > 100 µM; in the assay with MOLT-4 leukemia, > 100 µM; in the assay with SW-620 colon, > 100 µM; in the assay on OVCAR-4 ovarian it was 90.8 µM. In addition, the TGI in the assay on DMS 114 small cell lung, in the assay on MALME-3M melanoma and in the assay on TK-10 renal was > 100 µM in each case.
Consider `COc1nc(OC)c2c(=O)oc(-c3ccccc3)cc2n1`, for which the TGI with KM20L2 colon, in the assay on RPMI-8226 leukemia, with NCI-H226 lung, in the assay with MOLT-4 leukemia, in the assay on SW-620 colon and in the assay with OVCAR-4 ovarian was > 100 µM throughout. Further, the TGI in the assay on DMS 114 small cell lung, in the assay on MALME-3M melanoma and with TK-10 renal was > 100 µM each time.
`Cc1c(Cl)cccc1NC(=O)CC1Sc2ccccc2NC1=O` (stereo unspecified): the TGI was > 85.9 µM and 55 µM in the assay with KM20L2 colon; > 100 µM in the assay on RPMI-8226 leukemia; 86.5 µM in the assay on T-47D breast; 41.7 µM and 54.8 µM with NCI-H226 lung; > 100 µM with MOLT-4 leukemia; 56.8 µM and 77.3 µM in the assay with SW-620 colon. The TGI with OVCAR-4 ovarian is 40 µM and 40.4 µM; in the assay on DMS 114 small cell lung it was > 100 µM; with MALME-3M melanoma, 50.7 µM and 47.2 µM; in the assay with TK-10 renal, 49.6 µM and > 100 µM. Moreover, the GI50 is 11 µM and 26.3 µM in the assay on SW-620 colon; 20.8 µM and 48.2 µM in the assay on TK-10 renal.
On to `CC(NC(=O)c1ccccc1)C(=O)N(Cc1ccccc1)Cc1ccccc1` (stereo unspecified), for which the TGI in the assay with KM20L2 colon is 90.4 µM; with RPMI-8226 leukemia, 45.7 µM; in the assay on NCI-H226 lung, 56.3 µM; in the assay on MOLT-4 leukemia, 35.6 µM; with SW-620 colon, > 100 µM; in the assay on OVCAR-4 ovarian, 95.3 µM. Also, the TGI is 53.8 µM in the assay on DMS 114 small cell lung, 53.7 µM in the assay with MALME-3M melanoma and > 100 µM in the assay on TK-10 renal.
As for `O=C1CCC2(c3ccc(F)cc3)Nc3ccccc3N12` (stereo unspecified), the TGI with KM20L2 colon, in the assay on RPMI-8226 leukemia, with NCI-H226 lung, with MOLT-4 leukemia, with SW-620 colon and in the assay on OVCAR-4 ovarian was > 100 µM each time. The TGI in the assay on DMS 114 small cell lung, in the assay with MALME-3M melanoma and in the assay on TK-10 renal was > 100 µM throughout.
Consider `[Cu+2].[Cu+2].[O-]c1ccccc1C=Nc1ccccc1[O-].[O-]c1ccccc1C=Nc1ccccc1[O-]`, for which the GI50 was 8.16 µM with KM20L2 colon; 3.5 µM with RPMI-8226 leukemia; 20.4 µM with NCI-H226 lung; 2.99 µM with MOLT-4 leukemia; 6.61 µM with SW-620 colon; 2.6 µM in the assay on OVCAR-4 ovarian. In addition, the GI50 was 1.96 µM in the assay on DMS 114 small cell lung, 13.7 µM in the assay with MALME-3M melanoma and 18.3 µM in the assay with TK-10 renal. The TGI with KM20L2 colon came out at 28 µM; in the assay with RPMI-8226 leukemia, 54.6 µM; in the assay with NCI-H226 lung, 36.5 µM; in the assay on MOLT-4 leukemia, 9.97 µM; with SW-620 colon, 26.2 µM; in the assay on OVCAR-4 ovarian, 8.23 µM. For the same compound, the TGI with DMS 114 small cell lung worked out at 5.13 µM; in the assay with MALME-3M melanoma, 27.3 µM; in the assay on TK-10 renal it was 32.3 µM.
Take `Cc1c(Cl)ccc2c1NC(=O)C2(O)CC(=O)c1ccc(Cl)cc1Cl` (stereo unspecified): the TGI with KM20L2 colon, in the assay on RPMI-8226 leukemia, in the assay on T-47D breast, with NCI-H226 lung, in the assay with MOLT-4 leukemia and in the assay on SW-620 colon was > 50 µM in each case. The TGI in the assay with OVCAR-4 ovarian, in the assay on DMS 114 small cell lung, in the assay on MALME-3M melanoma and with TK-10 renal was > 50 µM throughout.
For the compound `CCc1nc2c(O)ccc(O)c2nc1C`, the TGI is 34 µM in the assay on KM20L2 colon; > 43.8 µM with RPMI-8226 leukemia; 29.9 µM in the assay with NCI-H226 lung; > 39.5 µM in the assay with MOLT-4 leukemia; 4.1 µM with SW-620 colon; 17.3 µM in the assay with OVCAR-4 ovarian. Moreover, the TGI with DMS 114 small cell lung turned out to be 36.1 µM; with MALME-3M melanoma, 29.3 µM; with TK-10 renal, 37.1 µM.
As for `Cc1c(/C=C2\CC/C(=C\c3[nH]c(C(=O)OC(C)(C)C)c(C)c3C)C2=O)[nH]c(C(=O)OC(C)(C)C)c1C`, the TGI in the assay on KM20L2 colon, in the assay on RPMI-8226 leukemia, in the assay on NCI-H226 lung, in the assay with MOLT-4 leukemia, in the assay with SW-620 colon and with OVCAR-4 ovarian was > 100 µM each time. The TGI in the assay with DMS 114 small cell lung, in the assay on MALME-3M melanoma and in the assay with TK-10 renal was > 100 µM throughout.
Regarding `O=C(Cn1ccnc1[N+](=O)[O-])N(CCO)CCO`, the TGI in the assay on KM20L2 colon is > 1250 µM; in the assay with RPMI-8226 leukemia, 250 µM and > 1250 µM; with T-47D breast, > 250 µM; in the assay on NCI-H226 lung, > 1250 µM; in the assay on MOLT-4 leukemia, > 1250 µM; in the assay on SW-620 colon it was > 1250 µM. Further, the TGI is > 1250 µM in the assay with OVCAR-4 ovarian; > 1250 µM in the assay on DMS 114 small cell lung; 224 µM and > 1250 µM in the assay on MALME-3M melanoma; > 250 µM with TK-10 renal. The GI50 in the assay with RPMI-8226 leukemia, in the assay on NCI-H226 lung, in the assay with MOLT-4 leukemia, with SW-620 colon, in the assay with OVCAR-4 ovarian and in the assay with MALME-3M melanoma was > 1250 µM throughout.
For the compound `CS(=O)(=O)C1S(=O)(=O)OCCOS1(=O)=O`, the TGI with KM20L2 colon, in the assay with RPMI-8226 leukemia, in the assay with NCI-H226 lung, with MOLT-4 leukemia, with SW-620 colon and with OVCAR-4 ovarian was > 100 µM each time. In addition, the TGI in the assay on DMS 114 small cell lung, in the assay on MALME-3M melanoma and with TK-10 renal was > 100 µM in each case.
